According to patent US12655116B2, “Substituted isophthalic acid diamides” (Bayer Aktiengesellschaft, priority 2020, dated 2026):

Columns and labels:
DIGSA [1] = test: Post-emergence herbicidal action against DIGSA; format: in vivo, Digitaria sanguinalis; settings: Digitaria sanguinalis, 504 h
How it was run: (§1)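 Foliar application at one-leaf stage of formulated test compounds, aqueous spray at 600–800 l/ha with 0.2% wetting agent. Greenhouse, optimal conditions, ~3 weeks; damage scored visually in % relative to untreated plants.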

ECHCG [2] = test: Post-emergence herbicidal action against ECHCG; format: in vivo, Echinochloa crus-galli; settings: Echinochloa crus-galli, 504 h; for pest or weed control at 20 g/ha: dosage 20 g/ha
How it was run: as §1

ABUTH [3] = test: Pre-emergence herbicidal action against ABUTH; format: in vivo, Abutilon theophrasti; settings: Abutilon theophrasti, 504 h; for pest or weed control at 80 g/ha: scored visually after 3 weeks vs untreated controls (100% = plants have died, 0% = like control plants)
How it was run: (§2)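 Greenhouse pots of sandy loam held seeds covered with soil, onto which the compound was applied before emergence. An aqueous suspension or emulsion of WP or EC was used at 600 to 800 l/ha with 0.2% wetting agent. Percent damage was judged visually at 3 weeks.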

POLCO [4] = test: Post-emergence herbicidal action against POLCO; format: in vivo, Polygonum convolvulus; settings: Fallopia convolvulus, 504 h
How it was run: as §1

AMARE [5] = test: Post-emergence herbicidal action against AMARE; format: in vivo, Amaranthus retroflexus; settings: Amaranthus retroflexus, 504 h, visual assessment about 3 weeks after treatment, 100% = plants have died, 0% = like control plants
How it was run: as §1

MATIN [6] = test: Pre-emergence herbicidal action against MATIN; format: in vivo, Matricaria inodora; settings: Tripleurospermum inodorum, 504 h; for pest or weed control at 80 g/ha: dosage 80 g/ha
How it was run: as §2

DIGSA [7] = test: Pre-emergence herbicidal action against DIGSA; format: in vivo, Digitaria sanguinalis; settings: Digitaria sanguinalis, 504 h; for pest or weed control at 80 g/ha: dosage 80 g/ha
How it was run: as §2

AVEFA [8] = test: Post-emergence herbicidal action against AVEFA; format: in vivo, Avena fatua; settings: Avena fatua, 504 h, visual assessment about 3 weeks after treatment, 100% = plants have died, 0% = like control plants
How it was run: as §1

HORMU = test: Pre-emergence herbicidal action against HORMU; format: in vivo, Hordeum murinum; settings: Hordeum murinum, 504 h; 320 g/ha, pre-emergence
How it was run: as §2

VIOTR [9] = test: Pre-emergence herbicidal action against VIOTR; format: in vivo, Viola tricolor; settings: Viola tricolor, 504 h
How it was run: as §2

STEME [10] = test: Pre-emergence herbicidal action against STEME; format: in vivo, Stellaria media; settings: Stellaria media, 504 h
How it was run: as §2

STEME [11] = test: Post-emergence herbicidal action against STEME; format: in vivo, Stellaria media; settings: Stellaria media, 504 h
How it was run: as §1

ECHCG [12] = test: Pre-emergence herbicidal action against ECHCG; format: in vivo, Echinochloa crus-galli; settings: Echinochloa crus-galli, 504 h
How it was run: as §2

ABUTH [13] = test: Post-emergence herbicidal action against ABUTH; format: in vivo, Abutilon theophrasti; settings: Abutilon theophrasti, 504 h, visual assessment about 3 weeks after treatment vs untreated controls; for pest or weed control at 20 g/ha: dosage 20 g/ha
How it was run: as §1

SETVI [14] = test: Pre-emergence herbicidal action against SETVI; format: in vivo, Setaria viridis; settings: Setaria viridis, 504 h; for pest or weed control at 80 g/ha: dosage 80 g/ha
How it was run: as §2

AMARE [15] = test: Pre-emergence herbicidal action against AMARE; format: in vivo, Amaranthus retroflexus; settings: Amaranthus retroflexus, 504 h, 100% = plants have died, 0% = like control plants
How it was run: as §2

PHBPU [16] = test: Pre-emergence herbicidal action against PHBPU; format: in vivo, Pharbitis purpurea; settings: Ipomoea purpurea, 504 h
How it was run: as §2

LOLRI = test: Pre-emergence herbicidal action against LOLRI; format: in vivo, Lolium rigidum; settings: Lolium rigidum, 504 h, 80 g/ha
How it was run: as §2

MATIN [17] = test: Post-emergence herbicidal action against MATIN; format: in vivo, Matricaria inodora; settings: Tripleurospermum inodorum, 504 h
How it was run: as §1

VERPE [18] = test: Post-emergence herbicidal action against VERPE; format: in vivo, Veronica persica; settings: Veronica persica, 504 h
How it was run: as §1

AVEFA [19] = test: Pre-emergence herbicidal action against AVEFA; format: in vivo, Avena fatua; settings: Avena fatua, 504 h; 80 g/ha, pre-emergence
How it was run: as §2

SETVI [20] = test: Post-emergence herbicidal action against SETVI; format: in vivo, Setaria viridis; settings: Setaria viridis, 504 h, dosage 20 g/ha
How it was run: as §1

ALOMY [21] = test: Pre-emergence herbicidal action against ALOMY; format: in vivo, Alopecurus myosuroides; settings: Alopecurus myosuroides, 504 h; 80 g/ha, pre-emergence, scored visually after 3 weeks vs untreated controls (100% = plants have died, 0% = like control plants)
How it was run: as §2

ALOMY [22] = test: Post-emergence herbicidal action against ALOMY; format: in vivo, Alopecurus myosuroides; settings: Alopecurus myosuroides, 504 h, visual assessment about 3 weeks after treatment vs untreated controls
How it was run: as §1

POLCO [23] = test: Pre-emergence herbicidal action against POLCO; format: in vivo, Polygonum convolvulus; settings: Fallopia convolvulus, 504 h, dosage 80 g/ha
How it was run: as §2

PHBPU [24] = test: Post-emergence herbicidal action against PHBPU; format: in vivo, Pharbitis purpurea; settings: Ipomoea purpurea, 504 h, dosage 20 g/ha
How it was run: as §1

VERPE [25] = test: Pre-emergence herbicidal action against VERPE; format: in vivo, Veronica persica; settings: Veronica persica, 504 h
How it was run: as §2

VIOTR [26] = test: Post-emergence herbicidal action against VIOTR; format: in vivo, Viola tricolor; settings: Viola tricolor, 504 h, 20 g/ha
How it was run: as §1

[27] = scored visually after 3 weeks vs untreated controls

`CNC(=O)c1c(C(F)(F)F)ccc(C(=O)Nc2nnc(C)o2)c1SC` [Example 6-58] gave a pest or weed control at 20 g/ha (DIGSA [1]) of 80%, a pest or weed control at 80 g/ha (DIGSA [1]; 80 g/ha) of 90% and a pest or weed control at 20 g/ha (ECHCG [2]) of 90%. The pest or weed control at 80 g/ha (ECHCG [2]; dosage 80 g/ha) was 90%, the pest or weed control at 80 g/ha (ABUTH [3]) was 100% and the pest or weed control at 320 g/ha (ABUTH [3]; Dosage: 320 g/ha, scored visually after 3 weeks, 100% = plants have died, 0% = like control plants) was 100%. For the same compound, the pest or weed control at 80 g/ha (POLCO [4]; dosage 80 g/ha) was 100%, the pest or weed control at 80 g/ha (AMARE [5]; 80 g/ha) was 90% and the pest or weed control at 80 g/ha (MATIN [6]) was 80%. It also gave a pest or weed control at 320 g/ha (MATIN [6]; dosage 320 g/ha) of 100%, a pest or weed control at 80 g/ha (DIGSA [7]) of 100% and a pest or weed control at 320 g/ha (DIGSA [7]; dosage 320 g/ha) of 100%. For the same compound, the pest or weed control at 20 g/ha (AVEFA [8]) was 80%, the pest or weed control at 80 g/ha (AVEFA [8]; 80 g/ha) was 90% and the pest or weed control at 320 g/ha (HORMU) was 90%. It also gave a pest or weed control at 320 g/ha (VIOTR [9]; dosage 320 g/ha) of 90%, a pest or weed control at 80 g/ha (STEME [10]; dosage 80 g/ha) of 90% and a pest or weed control at 320 g/ha (STEME [10]; dosage 320 g/ha) of 90%. The pest or weed control at 20 g/ha (STEME [11]; 20 g/ha) was 80%, the pest or weed control at 80 g/ha (STEME [11]; 80 g/ha) was 80% and the pest or weed control at 320 g/ha (ECHCG [12]; 320 g/ha) was 100%. The pest or weed control at 20 g/ha (ABUTH [13]) was 80%, the pest or weed control at 80 g/ha (ABUTH [13]; dosage 80 g/ha) was 80% and the pest or weed control at 80 g/ha (SETVI [14]) was 100%. It also gave a pest or weed control at 320 g/ha (SETVI [14]; dosage 320 g/ha) of 100%, a pest or weed control at 80 g/ha (AMARE [15]; [27]) of 100% and a pest or weed control at 320 g/ha (AMARE [15]; 320 g/ha, scored visually after 3 weeks) of 100%.
`CCc1c(C(=O)Nc2nnnn2C)ccc(C(F)(F)F)c1C(=O)NC` [Example 1-271] gave a pest or weed control at 20 g/ha (PHBPU [16]; dosage 20 g/ha) of 80%, a pest or weed control at 80 g/ha (PHBPU [16]; dosage 80 g/ha) of 90% and a pest or weed control at 5 g/ha (DIGSA [1]; 5 g/ha) of 90%. The pest or weed control at 20 g/ha (DIGSA [1]) was 100%, the pest or weed control at 80 g/ha (LOLRI) was 100% and the pest or weed control at 5 g/ha (ECHCG [2]; dosage 5 g/ha) was 80%. It also gave a pest or weed control at 20 g/ha (ECHCG [2]) of 80%, a pest or weed control at 5 g/ha (MATIN [17]; dosage 5 g/ha) of 90% and a pest or weed control at 20 g/ha (MATIN [17]; dosage 20 g/ha) of 90%. The pest or weed control at 80 g/ha (ABUTH [3]) was 100%, the pest or weed control at 20 g/ha (ABUTH [3]; dosage 20 g/ha, scored visually after 3 weeks vs untreated controls, 100% = plants have died, 0% = like control plants, read-out: Pre-emergence action against ABUTH (herbicidal activity in percent)) was 100% and the pest or weed control at 20 g/ha (POLCO [4]; dosage 20 g/ha) was 80%. It also gave a pest or weed control at 5 g/ha (VERPE [18]; 5 g/ha) of 80%, a pest or weed control at 20 g/ha (VERPE [18]; 20 g/ha) of 90% and a pest or weed control at 20 g/ha (AMARE [5]; 20 g/ha) of 90%. For the same compound, the pest or weed control at 20 g/ha (MATIN [6]; dosage 20 g/ha) was 100%, the pest or weed control at 80 g/ha (MATIN [6]) was 100% and the pest or weed control at 80 g/ha (AVEFA [19]) was 80%. It also gave a pest or weed control at 20 g/ha (DIGSA [7]; dosage 20 g/ha) of 100%, a pest or weed control at 80 g/ha (DIGSA [7]) of 100% and a pest or weed control at 20 g/ha (AVEFA [8]) of 80%. The pest or weed control at 20 g/ha (SETVI [20]) was 80%, the pest or weed control at 80 g/ha (ALOMY [21]) was 90% and the pest or weed control at 20 g/ha (VIOTR [9]; dosage 20 g/ha) was 100%. For the same compound, the pest or weed control at 80 g/ha (VIOTR [9]; dosage 80 g/ha) was 100%, the pest or weed control at 5 g/ha (ALOMY [22]; dosage 5 g/ha) was 80% and the pest or weed control at 20 g/ha (ALOMY [22]; dosage 20 g/ha) was 90%. It also gave a pest or weed control at 80 g/ha (POLCO [23]) of 80%, a pest or weed control at 20 g/ha (PHBPU [24]) of 90% and a pest or weed control at 20 g/ha (VERPE [25]; dosage 20 g/ha) of 90%. For the same compound, the pest or weed control at 80 g/ha (VERPE [25]; dosage 80 g/ha) was 100%, the pest or weed control at 20 g/ha (ECHCG [12]; 20 g/ha) was 90% and the pest or weed control at 80 g/ha (ECHCG [12]; 80 g/ha) was 100%. It also gave a pest or weed control at 5 g/ha (ABUTH [13]; dosage 5 g/ha) of 80%, a pest or weed control at 20 g/ha (ABUTH [13]) of 90% and a pest or weed control at 80 g/ha (SETVI [14]) of 100%. It also gave a pest or weed control at 20 g/ha (AMARE [15]; 20 g/ha, scored visually after 3 weeks vs untreated controls) of 100%, a pest or weed control at 80 g/ha (AMARE [15]; [27]) of 100% and a pest or weed control at 20 g/ha (VIOTR [26]) of 90%.
